Data published in the kinase profiling compilation of Christmann-Franck et al. (2016).

Assays:
Experiment in all cases: radiometric filter-binding kinase assay
[1] = tested on: AKT1 (human), P31749 [S473D]
[2] = tested on: AKT2 (human), P31751 [S474D]
AURKB (human) = AURKB (human) (UniProt Q96GD4)
BRSK2 (human) = BRSK2 (human) (UniProt Q8IWQ3)
CDK2 CCNA2 (human) = CDK2 CCNA2 (human) (UniProt P20248+P24941)
CHEK1 (human) = CHEK1 (human) (UniProt O14757)
CHEK2 (human) = CHEK2 (human) (UniProt O96017)
Sequence of CHEK2 (human) (O96017 whole entry, looked up): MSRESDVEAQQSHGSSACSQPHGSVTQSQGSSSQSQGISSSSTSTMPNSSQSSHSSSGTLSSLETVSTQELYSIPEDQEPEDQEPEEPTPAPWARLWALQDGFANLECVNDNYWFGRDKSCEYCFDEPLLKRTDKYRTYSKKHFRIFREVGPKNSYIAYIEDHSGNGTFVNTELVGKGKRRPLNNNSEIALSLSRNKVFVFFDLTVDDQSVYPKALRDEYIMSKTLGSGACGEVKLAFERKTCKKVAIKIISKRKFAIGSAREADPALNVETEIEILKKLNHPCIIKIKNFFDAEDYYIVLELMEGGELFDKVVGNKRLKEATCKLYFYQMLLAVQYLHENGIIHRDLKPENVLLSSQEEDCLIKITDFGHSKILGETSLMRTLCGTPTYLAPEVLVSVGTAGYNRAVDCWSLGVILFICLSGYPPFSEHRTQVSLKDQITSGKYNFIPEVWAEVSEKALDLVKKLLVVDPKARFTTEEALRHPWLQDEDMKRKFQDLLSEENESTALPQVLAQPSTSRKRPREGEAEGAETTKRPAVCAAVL

CSK (human) = CSK (human) (UniProt P41240)
CSNK2A1 (human) = CSNK2A1 (human) (UniProt P68400)
DYRK3 (human) = DYRK3 (human) (UniProt O43781)
EEF2K (human) = EEF2K (human) (UniProt O00418)
HIPK2 (human) = HIPK2 (human) (UniProt Q9H2X6)
IKBKB (human) = IKBKB (human) (UniProt O14920)
IKBKE (human) = IKBKE (human) (UniProt Q14164)
LCK (mouse) = settings: accession and sequence are those of the human protein
MAPK1 (human) = MAPK1 (human) (UniProt P28482)
Sequence of MAPK1 (human) (P28482 whole entry, looked up): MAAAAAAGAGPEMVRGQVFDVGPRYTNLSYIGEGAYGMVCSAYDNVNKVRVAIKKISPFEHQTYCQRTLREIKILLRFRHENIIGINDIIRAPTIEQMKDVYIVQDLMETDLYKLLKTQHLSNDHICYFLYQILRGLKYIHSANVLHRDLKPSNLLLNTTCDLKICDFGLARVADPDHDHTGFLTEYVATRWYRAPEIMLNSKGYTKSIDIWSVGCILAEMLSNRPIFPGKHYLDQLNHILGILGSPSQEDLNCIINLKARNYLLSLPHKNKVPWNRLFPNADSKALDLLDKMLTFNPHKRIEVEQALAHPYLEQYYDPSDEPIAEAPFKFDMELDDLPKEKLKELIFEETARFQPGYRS

MAPK11 (human) = MAPK11 (human) (UniProt Q15759)
Sequence of MAPK11 (human) (Q15759 whole entry, looked up): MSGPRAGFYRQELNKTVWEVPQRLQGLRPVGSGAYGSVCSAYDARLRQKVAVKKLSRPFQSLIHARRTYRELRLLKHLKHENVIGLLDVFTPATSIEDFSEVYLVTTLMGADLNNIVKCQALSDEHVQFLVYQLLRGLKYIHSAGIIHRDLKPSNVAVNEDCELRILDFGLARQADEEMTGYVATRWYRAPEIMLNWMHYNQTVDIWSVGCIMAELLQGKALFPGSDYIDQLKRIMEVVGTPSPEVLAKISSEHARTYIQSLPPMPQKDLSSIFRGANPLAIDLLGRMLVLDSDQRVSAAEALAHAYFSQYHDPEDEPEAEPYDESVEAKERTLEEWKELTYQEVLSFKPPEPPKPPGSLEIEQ

MAPK14 (human) = MAPK14 (human) (UniProt Q16539)
Sequence of MAPK14 (human) (Q16539 whole entry, looked up): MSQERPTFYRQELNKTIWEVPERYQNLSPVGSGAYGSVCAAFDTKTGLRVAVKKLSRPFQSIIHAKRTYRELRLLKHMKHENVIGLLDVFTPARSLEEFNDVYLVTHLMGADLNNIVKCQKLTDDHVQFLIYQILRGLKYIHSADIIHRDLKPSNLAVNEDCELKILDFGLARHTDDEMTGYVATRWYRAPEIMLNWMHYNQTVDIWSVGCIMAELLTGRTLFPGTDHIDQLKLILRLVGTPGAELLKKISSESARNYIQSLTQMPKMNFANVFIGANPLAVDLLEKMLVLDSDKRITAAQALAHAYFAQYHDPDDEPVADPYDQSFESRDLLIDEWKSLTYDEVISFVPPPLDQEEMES

MAPK15 (human) = MAPK15 (human) (UniProt Q8TD08)
MAPK8 (human) = MAPK8 (human) (UniProt P45983)
MELK (human) = MELK (human) (UniProt Q14680)
Sequence of MELK (human) (Q14680 whole entry, looked up): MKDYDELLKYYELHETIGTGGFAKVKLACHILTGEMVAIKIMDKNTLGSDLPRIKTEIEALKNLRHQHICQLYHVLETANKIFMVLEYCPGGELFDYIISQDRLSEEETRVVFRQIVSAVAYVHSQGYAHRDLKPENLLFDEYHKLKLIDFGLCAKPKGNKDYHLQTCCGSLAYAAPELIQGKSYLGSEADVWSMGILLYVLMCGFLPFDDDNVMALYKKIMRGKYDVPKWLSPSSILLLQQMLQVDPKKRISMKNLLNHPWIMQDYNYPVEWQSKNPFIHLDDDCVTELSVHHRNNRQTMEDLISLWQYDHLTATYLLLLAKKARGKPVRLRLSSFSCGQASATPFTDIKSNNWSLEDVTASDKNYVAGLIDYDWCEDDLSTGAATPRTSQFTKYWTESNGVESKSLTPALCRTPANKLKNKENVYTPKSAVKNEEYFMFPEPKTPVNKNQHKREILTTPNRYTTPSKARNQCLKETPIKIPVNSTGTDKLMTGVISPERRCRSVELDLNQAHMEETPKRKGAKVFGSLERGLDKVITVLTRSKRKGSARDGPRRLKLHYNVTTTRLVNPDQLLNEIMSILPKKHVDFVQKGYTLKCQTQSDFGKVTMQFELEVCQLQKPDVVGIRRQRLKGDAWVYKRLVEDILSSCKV

MST4 (human) = MST4 (human) (UniProt Q9P289)
Sequence of MST4 (human) (Q9P289 whole entry, looked up): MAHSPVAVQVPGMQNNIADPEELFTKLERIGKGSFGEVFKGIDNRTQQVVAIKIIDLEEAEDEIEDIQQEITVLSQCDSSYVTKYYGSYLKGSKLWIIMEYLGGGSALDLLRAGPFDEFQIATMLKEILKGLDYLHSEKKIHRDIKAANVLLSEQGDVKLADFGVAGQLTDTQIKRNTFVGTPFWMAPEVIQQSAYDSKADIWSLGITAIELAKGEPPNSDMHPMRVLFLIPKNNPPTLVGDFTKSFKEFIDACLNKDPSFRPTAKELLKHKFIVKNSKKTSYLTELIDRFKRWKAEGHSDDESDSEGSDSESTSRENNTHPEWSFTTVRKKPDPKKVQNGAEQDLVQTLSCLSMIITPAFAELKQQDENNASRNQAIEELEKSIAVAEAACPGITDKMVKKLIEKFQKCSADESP

NEK2 (human) = NEK2 (human) (UniProt P51955)
PAK4 (human) = PAK4 (human) (UniProt O96013)
PAK6 (human) = PAK6 (human) (UniProt Q9NQU5)
PAK7 (human) = PAK7 (human) (UniProt Q9P286)
PHKG1 (human) = PHKG1 (human) (UniProt Q16816)
PIM1 (human) = PIM1 (human) (UniProt P11309)
PIM3 (human) = PIM3 (human) (UniProt Q86V86)
[3] = tested on: PINK1 (Tribolium castaneum); settings: accession and sequence are those of the human protein
PKN2 (human) = PKN2 (human) (UniProt Q16513)
PRKACA (human) = PRKACA (human) (UniProt P17612)
PRKCA (human) = PRKCA (human) (UniProt P17252)
PRKCZ (human) = PRKCZ (human) (UniProt Q05513)
Sequence of PRKCZ (human) (Q05513 whole entry, looked up): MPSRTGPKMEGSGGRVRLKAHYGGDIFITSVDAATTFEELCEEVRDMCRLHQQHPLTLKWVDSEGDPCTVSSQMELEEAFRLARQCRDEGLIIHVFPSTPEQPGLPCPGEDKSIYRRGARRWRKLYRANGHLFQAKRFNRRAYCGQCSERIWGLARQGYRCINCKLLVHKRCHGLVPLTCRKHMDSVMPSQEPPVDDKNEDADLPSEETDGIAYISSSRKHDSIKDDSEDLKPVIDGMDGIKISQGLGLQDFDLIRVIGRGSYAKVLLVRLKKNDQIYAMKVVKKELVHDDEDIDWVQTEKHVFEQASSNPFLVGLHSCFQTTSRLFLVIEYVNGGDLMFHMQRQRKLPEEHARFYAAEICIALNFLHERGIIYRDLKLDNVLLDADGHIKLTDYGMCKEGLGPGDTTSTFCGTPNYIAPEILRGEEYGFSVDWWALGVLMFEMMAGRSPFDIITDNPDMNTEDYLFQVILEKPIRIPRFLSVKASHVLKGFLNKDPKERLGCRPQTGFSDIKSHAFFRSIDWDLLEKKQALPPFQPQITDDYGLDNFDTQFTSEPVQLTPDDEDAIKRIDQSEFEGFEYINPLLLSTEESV

RPS6KA3 KD1 KD2 (human) = RPS6KA3 KD1 KD2 (human) (UniProt P51812)
[4] = tested on: SGK1 (human), O00141 [S422D]
SRC (human) = SRC (human) (UniProt P12931)
SRPK1 (human) = SRPK1 (human) (UniProt Q96SB4)
Sequence of SRPK1 (human) (Q96SB4 whole entry, looked up): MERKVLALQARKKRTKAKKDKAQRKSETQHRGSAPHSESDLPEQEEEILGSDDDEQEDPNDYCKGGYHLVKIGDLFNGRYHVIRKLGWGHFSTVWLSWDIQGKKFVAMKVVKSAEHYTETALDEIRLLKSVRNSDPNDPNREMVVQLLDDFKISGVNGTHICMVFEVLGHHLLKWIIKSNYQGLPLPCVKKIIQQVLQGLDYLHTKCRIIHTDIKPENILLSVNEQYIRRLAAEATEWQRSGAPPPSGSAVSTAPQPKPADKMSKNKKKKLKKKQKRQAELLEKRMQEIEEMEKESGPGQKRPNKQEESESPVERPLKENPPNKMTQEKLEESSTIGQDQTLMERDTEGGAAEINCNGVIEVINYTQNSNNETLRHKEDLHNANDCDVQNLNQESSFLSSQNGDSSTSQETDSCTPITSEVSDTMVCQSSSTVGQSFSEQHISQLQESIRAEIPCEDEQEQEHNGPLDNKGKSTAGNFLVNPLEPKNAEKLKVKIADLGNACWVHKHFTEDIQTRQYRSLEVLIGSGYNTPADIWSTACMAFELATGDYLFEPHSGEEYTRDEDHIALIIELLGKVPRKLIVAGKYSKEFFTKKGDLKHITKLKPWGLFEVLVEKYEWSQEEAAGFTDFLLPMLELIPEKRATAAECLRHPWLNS

SYK (human) = SYK (human) (UniProt P43405)
YES1 (human) = YES1 (human) (UniProt P07947)
Sequence of YES1 (human) (P07947 whole entry, looked up): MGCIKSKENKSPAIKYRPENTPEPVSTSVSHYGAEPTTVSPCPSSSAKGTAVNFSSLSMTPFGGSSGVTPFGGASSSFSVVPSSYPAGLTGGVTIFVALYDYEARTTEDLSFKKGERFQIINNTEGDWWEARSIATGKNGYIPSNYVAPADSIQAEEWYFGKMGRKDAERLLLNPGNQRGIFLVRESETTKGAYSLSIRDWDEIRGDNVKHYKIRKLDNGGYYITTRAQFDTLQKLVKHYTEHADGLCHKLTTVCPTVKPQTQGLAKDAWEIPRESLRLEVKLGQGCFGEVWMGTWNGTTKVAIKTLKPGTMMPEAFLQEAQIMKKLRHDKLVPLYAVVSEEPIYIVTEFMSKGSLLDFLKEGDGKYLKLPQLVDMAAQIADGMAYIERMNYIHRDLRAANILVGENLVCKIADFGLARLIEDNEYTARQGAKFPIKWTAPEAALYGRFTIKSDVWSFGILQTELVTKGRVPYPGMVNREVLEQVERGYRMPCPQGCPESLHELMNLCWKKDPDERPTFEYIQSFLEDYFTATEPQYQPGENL

Sequence of AKT2 (human), P31751 [S474D] (P31751 whole entry S474D, looked up): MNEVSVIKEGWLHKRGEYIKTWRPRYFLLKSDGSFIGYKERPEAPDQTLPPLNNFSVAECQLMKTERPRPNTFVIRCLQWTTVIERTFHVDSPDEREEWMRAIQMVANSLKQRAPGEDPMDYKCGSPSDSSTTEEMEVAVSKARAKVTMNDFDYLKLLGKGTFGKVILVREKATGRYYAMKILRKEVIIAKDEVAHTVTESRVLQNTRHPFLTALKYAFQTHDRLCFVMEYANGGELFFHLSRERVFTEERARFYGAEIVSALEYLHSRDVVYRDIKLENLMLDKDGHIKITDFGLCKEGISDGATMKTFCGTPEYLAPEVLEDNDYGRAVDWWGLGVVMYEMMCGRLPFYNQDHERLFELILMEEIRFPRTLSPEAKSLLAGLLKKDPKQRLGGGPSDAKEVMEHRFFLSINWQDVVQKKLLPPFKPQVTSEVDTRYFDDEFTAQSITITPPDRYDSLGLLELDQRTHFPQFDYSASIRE

COc1ccc2c(c1)[nH]c1c(C)nccc12
residual activity ([1]; compound 1.0 µM): 100% | residual activity ([2]; compound 1.0 µM): 84% | residual activity (AURKB (human); compound 1.0 µM): 94% | residual activity (BRSK2 (human); compound 1.0 µM): 107% | residual activity (CDK2 CCNA2 (human); compound 1.0 µM): 80% | residual activity (CHEK1 (human); compound 1.0 µM): 94% | residual activity (CHEK2 (human); compound 1.0 µM): 95% | residual activity (CSK (human); compound 1.0 µM): 103% | IC50 (CSNK2A1 (human)): > 40 µM | residual activity (CSNK2A1 (human); compound 1.0 µM): 83% | residual activity (DYRK3 (human); compound 1.0 µM): 31% | residual activity (EEF2K (human); compound 1.0 µM): 73% | residual activity (HIPK2 (human); compound 1.0 µM): 68% | residual activity (IKBKB (human); compound 1.0 µM): 81% | residual activity (IKBKE (human); compound 1.0 µM): 83% | residual activity (LCK (mouse); compound 1.0 µM): 88% | residual activity (MAPK1 (human); compound 1.0 µM): 100% | residual activity (MAPK11 (human); compound 1.0 µM): 92% | residual activity (MAPK14 (human); compound 1.0 µM): 77% | residual activity (MAPK15 (human); compound 1.0 µM): 75% | residual activity (MAPK8 (human); compound 1.0 µM): 70% | residual activity (MELK (human); compound 1.0 µM): 93% | residual activity (MST4 (human); compound 1.0 µM): 135% | residual activity (NEK2 (human); compound 1.0 µM): 115% | residual activity (PAK4 (human); compound 1.0 µM): 67% | residual activity (PAK6 (human); compound 1.0 µM): 107% | residual activity (PAK7 (human); compound 1.0 µM): 90% | residual activity (PHKG1 (human); compound 1.0 µM): 84% | residual activity (PIM1 (human); compound 1.0 µM): 74% | residual activity (PIM3 (human); compound 1.0 µM): 74% | residual activity ([3]; compound 1.0 µM): 98% | residual activity (PKN2 (human); compound 1.0 µM): 61% | residual activity (PRKACA (human); compound 1.0 µM): 104% | residual activity (PRKCA (human); compound 1.0 µM): 94% | residual activity (PRKCZ (human); compound 1.0 µM): 77% | residual activity (RPS6KA3 KD1 KD2 (human); compound 1.0 µM): 78% | residual activity ([4]; compound 1.0 µM): 78% | residual activity (SRC (human); compound 1.0 µM): 109% | residual activity (SRPK1 (human); compound 1.0 µM): 78% | residual activity (SYK (human); compound 1.0 µM): 93% | residual activity (YES1 (human); compound 1.0 µM): 100%

Oc1ccc2c(c1)C(O)c1cc(O)ccc1-2
residual activity ([1]; compound 20.0 µM): 115% | residual activity ([2]; compound 20.0 µM): 80% | residual activity (AURKB (human); compound 20.0 µM): 75% | residual activity (BRSK2 (human); compound 20.0 µM): 96% | residual activity (CDK2 CCNA2 (human); compound 20.0 µM): 54% | residual activity (CHEK1 (human); compound 20.0 µM): 74% | residual activity (CHEK2 (human); compound 20.0 µM): 64% | residual activity (CSK (human); compound 20.0 µM): 98% | IC50 (CSNK2A1 (human)): > 40 µM | residual activity (CSNK2A1 (human); compound 20.0 µM): 52% | residual activity (DYRK3 (human); compound 20.0 µM): 15% | residual activity (EEF2K (human); compound 20.0 µM): 104% | residual activity (HIPK2 (human); compound 20.0 µM): 62% | residual activity (IKBKB (human); compound 20.0 µM): 94% | residual activity (IKBKE (human); compound 20.0 µM): 103% | residual activity (LCK (mouse); compound 20.0 µM): 93% | residual activity (MAPK1 (human); compound 20.0 µM): 101% | residual activity (MAPK11 (human); compound 20.0 µM): 106% | residual activity (MAPK14 (human); compound 20.0 µM): 84% | residual activity (MAPK15 (human); compound 20.0 µM): 25% | residual activity (MAPK8 (human); compound 20.0 µM): 97% | residual activity (MELK (human); compound 20.0 µM): 70% | residual activity (MST4 (human); compound 20.0 µM): 87% | residual activity (NEK2 (human); compound 20.0 µM): 84% | residual activity (PAK4 (human); compound 20.0 µM): 46% | residual activity (PAK6 (human); compound 20.0 µM): 90% | residual activity (PAK7 (human); compound 20.0 µM): 64% | residual activity (PHKG1 (human); compound 20.0 µM): 77% | residual activity (PIM1 (human); compound 20.0 µM): 19% | residual activity (PIM3 (human); compound 20.0 µM): 21% | residual activity ([3]; compound 20.0 µM): 68% | residual activity (PKN2 (human); compound 20.0 µM): 86% | residual activity (PRKACA (human); compound 20.0 µM): 76% | residual activity (PRKCA (human); compound 20.0 µM): 94% | residual activity (PRKCZ (human); compound 20.0 µM): 89% | residual activity (RPS6KA3 KD1 KD2 (human); compound 20.0 µM): 80% | residual activity ([4]; compound 20.0 µM): 70% | residual activity (SRC (human); compound 20.0 µM): 70% | residual activity (SRPK1 (human); compound 20.0 µM): 80% | residual activity (SYK (human); compound 20.0 µM): 121% | residual activity (YES1 (human); compound 20.0 µM): 72%

Oc1ccc2c(c1)oc1c3ccccc3c(O)cc21
residual activity ([1]; compound 1.0 µM): 90% | residual activity ([2]; compound 1.0 µM): 61% | residual activity (AURKB (human); compound 1.0 µM): 81% | residual activity (BRSK2 (human); compound 1.0 µM): 66% | residual activity (CDK2 CCNA2 (human); compound 1.0 µM): 51% | residual activity (CHEK1 (human); compound 1.0 µM): 92% | residual activity (CHEK2 (human); compound 1.0 µM): 79% | residual activity (CSK (human); compound 1.0 µM): 98% | IC50 (CSNK2A1 (human)): 4 µM | residual activity (CSNK2A1 (human); compound 1.0 µM): 87% | residual activity (DYRK3 (human); compound 1.0 µM): 17% | residual activity (EEF2K (human); compound 1.0 µM): 85% | residual activity (HIPK2 (human); compound 1.0 µM): 17% | residual activity (IKBKB (human); compound 1.0 µM): 85% | residual activity (IKBKE (human); compound 1.0 µM): 81% | residual activity (LCK (mouse); compound 1.0 µM): 92% | residual activity (MAPK1 (human); compound 1.0 µM): 106% | residual activity (MAPK11 (human); compound 1.0 µM): 87% | residual activity (MAPK14 (human); compound 1.0 µM): 83% | residual activity (MAPK15 (human); compound 1.0 µM): 37% | residual activity (MAPK8 (human); compound 1.0 µM): 81% | residual activity (MELK (human); compound 1.0 µM): 20% | residual activity (MST4 (human); compound 1.0 µM): 86% | residual activity (NEK2 (human); compound 1.0 µM): 98% | residual activity (PAK4 (human); compound 1.0 µM): 75% | residual activity (PAK6 (human); compound 1.0 µM): 121% | residual activity (PAK7 (human); compound 1.0 µM): 94% | residual activity (PHKG1 (human); compound 1.0 µM): 45% | residual activity (PIM1 (human); compound 1.0 µM): 10% | residual activity (PIM3 (human); compound 1.0 µM): 17% | residual activity ([3]; compound 1.0 µM): 80% | residual activity (PKN2 (human); compound 1.0 µM): 35% | residual activity (PRKACA (human); compound 1.0 µM): 101% | residual activity (PRKCA (human); compound 1.0 µM): 101% | residual activity (PRKCZ (human); compound 1.0 µM): 70% | residual activity (RPS6KA3 KD1 KD2 (human); compound 1.0 µM): 40% | residual activity ([4]; compound 1.0 µM): 80% | residual activity (SRC (human); compound 1.0 µM): 85% | residual activity (SRPK1 (human); compound 1.0 µM): 83% | residual activity (SYK (human); compound 1.0 µM): 84% | residual activity (YES1 (human); compound 1.0 µM): 95%
